# Reference: patent US10294202B2, “Pyrrolidinones as herbicides” (FMC Corporation, priority 2013, dated 2019)
# Legend:
# ragweed = experiment: Test A pre-/postemergence herbicide test; assay type: in vivo, Ambrosia elatior
# Procedure, shortened: (§1)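 Planted in loam–sand blend; treated the same day preemergence by directed soil spray, while separately grown plants at one- to two-leaf stage got postemergence spray. Compared visually with untreated controls after approximately 10 days; 100 means complete control.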
# wheat = experiment: Test A pre-/postemergence herbicide test; assay type: in vivo, Triticum aestivum; settings: Postemergence
# Procedure, shortened: as §1
# corn = experiment: Test A pre-/postemergence herbicide test; assay type: in vivo, Zea mays; settings: Postemergence
# Procedure, shortened: as §1
# sedge, umbrella = experiment: Test B flooded paddy test; assay type: in vivo, Cyperus difformis; settings: 500 g ai/ha, Flood; scale of 0 to 100 where 0 is no effect and 100 is complete control
# Procedure, shortened: (§2)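 In-water application to pots flooded 3 cm deep, plants at 2-leaf stage. Held in greenhouse 13–15 days at constant flood depth. Scored 0–100 by eye against controls.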
# ryegrass, Italian = experiment: Test A pre-/postemergence herbicide test; assay type: in vivo, Lolium multiflorum
# Procedure, shortened: as §1
# blackgrass = experiment: Test A postemergence herbicide test; assay type: in vivo, Alopecurus myosuroides
# Procedure, shortened: (§3)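 Potted in loam soil/sand blend; postemergence application at 1–2 leaf stage (2–10 cm). Greenhouse ~10 d. Visual injury vs untreated, 0–100 scale; 100 = complete control.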
# kochia = experiment: Test A pre-/postemergence herbicide test; assay type: in vivo, Kochia scoparia
# Procedure, shortened: as §1
# barnyardgrass [1] = experiment: Test B flooded paddy test; assay type: in vivo, Echinochloa crus-galli; settings: 500 g ai/ha, Flood; scale of 0 to 100 where 0 is no effect and 100 is complete control
# Procedure, shortened: as §2
# pigweed = experiment: Test A pre-/postemergence herbicide test; assay type: in vivo, Amaranthus retroflexus
# Procedure, shortened: as §1
# ducksalad = experiment: Test B flooded paddy test; assay type: in vivo, Heteranthera limosa; settings: 500 g ai/ha, Flood; scale of 0 to 100 where 0 is no effect and 100 is complete control
# Procedure, shortened: as §2
# galium = experiment: Test A postemergence herbicide test; assay type: in vivo, Galium aparine
# Procedure, shortened: as §3
# rice = experiment: Test B flooded paddy test; assay type: in vivo, Oryza sativa; settings: 500 g ai/ha, Flood; scale of 0 to 100 where 0 is no effect and 100 is complete control
# Procedure, shortened: as §2
# barnyardgrass [2] = experiment: Test A pre-/postemergence herbicide test; assay type: in vivo, Echinochloa crus-galli
# Procedure, shortened: as §1
# giant foxtail = experiment: Test A pre-/postemergence herbicide test; assay type: in vivo, Setaria faberii
# Procedure, shortened: as §1
# [3] = 125 g ai/ha, visual rating, 0 to 100 scale, 0 no effect, 100 complete control, approximately 10 days, preemergence
# [4] = Postemergence, 125 g ai/ha, 0 to 100 scale, 0 is no effect, 100 is complete control
# [5] = Postemergence, 500 g ai/ha, 0 to 100 scale (0 no effect, 100 complete control)
# [6] = preemergence, 500 g ai/ha, 0 to 100 scale, 0 is no effect and 100 is complete control
# [7] = 125 g ai/ha, 0 to 100 scale, 0 is no effect, 100 is complete control
# [8] = 500 g ai/ha, 0 to 100 scale (0 no effect, 100 complete control)
# [9] = Postemergence, 125 g ai/ha, visual rating on 0 to 100 scale (0 no effect, 100 complete control), approx. 10 days
# [10] = Preemergence, 125 g ai/ha, 0 to 100 scale where 0 is no effect and 100 is complete control
# [11] = 125 g ai/ha, visual rating on 0 to 100 scale (0 no effect, 100 complete control), approx. 10 days
# [12] = Preemergence, 500 g ai/ha, visual rating on 0 to 100 scale (0 no effect, 100 complete control)
smiles,measurement,setting,value
O=C1NCC(c2ccc(F)cc2)C1C(=O)Nc1ccccc1F (stereo not drawn) [Compound 239],"Plant response rating, Ragweed",ragweed; [3],0
same,"Plant response rating, Ragweed",ragweed; [4],0
same,"Plant response rating, Ragweed",ragweed; [5],0
same,"Plant response rating, Ragweed",ragweed; [6],90
same,"Plant response rating, Wheat",wheat; [7],0
same,"Plant response rating, Wheat",wheat; [8],20
same,"Plant response rating, Corn",corn; [7],0
same,"Plant response rating, Corn",corn; [8],0
same,"Plant response rating, Sedge, Umbrella","sedge, umbrella",0
same,"Plant response rating, Ryegrass, Italian","ryegrass, Italian; [3]",0
same,"Plant response rating, Ryegrass, Italian","ryegrass, Italian; [4]",0
same,"Plant response rating, Ryegrass, Italian","ryegrass, Italian; [5]",20
same,"Plant response rating, Ryegrass, Italian","ryegrass, Italian; [6]",0
same,"Plant response rating, Blackgrass",blackgrass; [7],20
same,"Plant response rating, Blackgrass",blackgrass; [8],20
same,"Plant response rating, Kochia",kochia; [3],0
same,"Plant response rating, Kochia",kochia; [4],0
same,"Plant response rating, Kochia",kochia; [5],20
same,"Plant response rating, Kochia",kochia; [6],70
same,"Plant response rating, Barnyardgrass",barnyardgrass [1],50
same,"Plant response rating, Pigweed",pigweed; [3],0
same,"Plant response rating, Pigweed",pigweed; [4],0
same,"Plant response rating, Pigweed",pigweed; [5],0
same,"Plant response rating, Pigweed",pigweed; [6],0
same,"Plant response rating, Ducksalad",ducksalad,100
same,"Plant response rating, Galium",galium; [7],0
same,"Plant response rating, Galium",galium; [8],30
same,"Plant response rating, Rice",rice,0
same,"Plant response rating, Barnyardgrass",barnyardgrass [2]; [3],50
same,"Plant response rating, Barnyardgrass",barnyardgrass [2]; [4],50
same,"Plant response rating, Barnyardgrass",barnyardgrass [2]; [5],90
same,"Plant response rating, Barnyardgrass",barnyardgrass [2]; [6],90
same,"Plant response rating, Foxtail, Giant",giant foxtail; [3],80
same,"Plant response rating, Foxtail, Giant",giant foxtail; [4],50
same,"Plant response rating, Foxtail, Giant",giant foxtail; [5],90
same,"Plant response rating, Foxtail, Giant",giant foxtail; [6],90
O=C1NCC(c2ccc(Cl)o2)C1C(=O)Nc1cccc(F)c1F (stereo not drawn) [Compound 285],"Plant response rating, Ragweed",ragweed; [9],0
same,"Plant response rating, Ragweed",ragweed; [5],0
same,"Plant response rating, Ragweed",ragweed; [10],0
same,"Plant response rating, Ragweed",ragweed; [6],0
same,"Plant response rating, Wheat",wheat; [11],0
same,"Plant response rating, Wheat",wheat; [8],0
same,"Plant response rating, Corn",corn; [11],0
same,"Plant response rating, Corn",corn; [8],0
same,"Plant response rating, Sedge, Umbrella","sedge, umbrella",0
same,"Plant response rating, Ryegrass, Italian","ryegrass, Italian; [9]",0
same,"Plant response rating, Ryegrass, Italian","ryegrass, Italian; [5]",0
same,"Plant response rating, Ryegrass, Italian","ryegrass, Italian; [10]",0
same,"Ryegrass, Italian plant response rating","ryegrass, Italian; [12]",0
same,"Plant response rating, Blackgrass",blackgrass; [11],0
same,"Plant response rating, Blackgrass",blackgrass; [8],0
same,"Plant response rating, Kochia",kochia; [9],0
same,"Plant response rating, Kochia",kochia; [5],0
same,"Plant response rating, Kochia",kochia; [10],0
same,"Plant response rating, Kochia",kochia; [6],0
same,"Plant response rating, Barnyardgrass",barnyardgrass [1],20
same,"Plant response rating, Pigweed",pigweed; [9],0
same,"Plant response rating, Pigweed",pigweed; [5],0
same,"Plant response rating, Pigweed",pigweed; [10],0
same,"Plant response rating, Pigweed",pigweed; [6],0
same,"Plant response rating, Ducksalad",ducksalad,100
same,"Plant response rating, Galium",galium; [11],0
same,"Plant response rating, Galium",galium; [8],0
same,"Plant response rating, Rice",rice,0
same,"Plant response rating, Barnyardgrass",barnyardgrass [2]; [9],20
same,"Plant response rating, Barnyardgrass",barnyardgrass [2]; [5],70
same,"Plant response rating, Barnyardgrass",barnyardgrass [2]; [10],0
same,"Plant response rating, Barnyardgrass",barnyardgrass [2]; [6],0
same,"Plant response rating, Foxtail, Giant",giant foxtail; [9],0
same,"Plant response rating, Foxtail, Giant",giant foxtail; [5],0
same,"Plant response rating, Foxtail, Giant",giant foxtail; [10],0
same,"Plant response rating, Foxtail, Giant",giant foxtail; [6],10
O=C1NCC(c2cccc(C(F)(F)F)c2)C1C(=O)Nc1cc(F)ccc1F (stereo not drawn) [Compound 314],"Plant response rating, Ragweed",ragweed; [9],0
same,"Plant response rating, Ragweed",ragweed; [5],0
same,"Plant response rating, Ragweed",ragweed; [10],0
same,Ragweed plant response rating,ragweed; [12],0
same,"Plant response rating, Wheat",wheat; [11],0
same,"Plant response rating, Wheat",wheat; [8],0
same,"Plant response rating, Corn",corn; [11],0
same,"Plant response rating, Corn",corn; [8],0
same,"Plant response rating, Sedge, Umbrella","sedge, umbrella",0
same,"Plant response rating, Ryegrass, Italian","ryegrass, Italian; [9]",0
same,"Plant response rating, Ryegrass, Italian","ryegrass, Italian; [5]",0
same,"Plant response rating, Ryegrass, Italian","ryegrass, Italian; [10]",0
same,"Ryegrass, Italian plant response rating","ryegrass, Italian; [12]",0
same,"Plant response rating, Blackgrass",blackgrass; [11],0
same,"Plant response rating, Blackgrass",blackgrass; [8],0
same,"Plant response rating, Kochia",kochia; [9],0
same,"Plant response rating, Kochia",kochia; [5],0
same,"Plant response rating, Kochia",kochia; [10],0
same,Kochia plant response rating,kochia; [12],0
same,"Plant response rating, Barnyardgrass",barnyardgrass [1],25
same,"Plant response rating, Pigweed",pigweed; [9],0
same,"Plant response rating, Pigweed",pigweed; [5],0
same,"Plant response rating, Pigweed",pigweed; [10],0
same,Pigweed plant response rating,pigweed; [12],0
same,"Plant response rating, Ducksalad",ducksalad,40
same,"Plant response rating, Galium",galium; [11],0
same,"Plant response rating, Galium",galium; [8],0
same,"Plant response rating, Rice",rice,15
same,"Plant response rating, Barnyardgrass",barnyardgrass [2]; [9],30
same,"Plant response rating, Barnyardgrass",barnyardgrass [2]; [5],80
same,"Plant response rating, Barnyardgrass",barnyardgrass [2]; [10],20
same,Barnyardgrass plant response rating,barnyardgrass [2]; [12],80
same,"Plant response rating, Foxtail, Giant",giant foxtail; [9],60
same,"Plant response rating, Foxtail, Giant",giant foxtail; [5],80
same,"Plant response rating, Foxtail, Giant",giant foxtail; [10],30
same,"Foxtail, Giant plant response rating",giant foxtail; [12],90
